Assay results reported in patent publication US20210052593A1, “Compositions and Methods for the Treatment of Macrophage Activation Syndrome” (Children's Hospital Medical Center, priority 2018, published 2021).

Columns and labels:
[1] = treatment of MAS; cited from earlier work
IFN-induced signature = conditions: clinical trial of anakinra in SJIA, Quartier et al; vs placebo, regardless of response status; cited from earlier work
MAS patients = conditions: cited from earlier work
SJIA patients = conditions: observed MAS rates in phase III trials, even if underlying SJIA well controlled; cited from earlier work
[2] = system: perforin-deficient mice infected with murine CMV; conditions: cited from earlier work
[3] = system: SJIA patient with recurrent MAS; assay: Use of Tadekinig-alfa in an SJIA patient with recurrent MAS; type: in vivo, human; conditions: one SJIA patient with recurrent MAS

Molecule: COc1cc([C@@H]2c3cc4c(cc3[C@@H](O[C@@H]3O[C@@H]5CO[C@@H](C)O[C@H]5[C@H](O)[C@H]3O)[C@H]3COC(=O)[C@H]23)OCO4)cc(OC)c1O [etoposide]
- associated toxicity / side effects [1]: Life threatening bone marrow suppression, short-term, and hematologic malignancies later in life

Molecule: anakinra
- strength of the IFN-induced signature (IFN-induced signature): sustained increase
- treatment of MAS (MAS patients; literature reports): successful treatment of MAS

Molecule: canakinumab
- protection against MAS (SJIA patients): do not provide protection against MAS

Molecule: rilonacept
- occurrence of MAS in treated patients (MAS patients; literature report): MAS has been seen

Molecule: tocilizumab
- protection against MAS (SJIA patients): do not provide protection against MAS

B1: synthetic IL-18BP: synthetic IL-18 binding protein administered to mice (protein, UniProt Q9Z0M9 29-193, looked up)
Interleukin-18-binding protein: TSAPQTTATVLTGSSKDPCSSWSPAVPTKQYPALDVIWPEKEVPLNGTLTLSCTACSRFPYFSILYWLGNGSFIEHLPGRLKEGHTSREHRNTSTWLHRALVLEELSPTLRSTNFSCLFVDPGQVAQYHIILAQLWDGLKTAPSPSQETLSSHSPVSRSAGPGVA
- liver damage [2]: ameliorated liver damage
- overall survival [2]: no change
- production of proinflammatory cytokines [2]: remained high

B2: Tadekinig-alfa (protein, UniProt O95998 31-194, looked up)
Interleukin-18-binding protein: TPVSQTTTAATASVRSTKDPCPSQPPVFPAAKQCPALEVTWPEVEVPLNGTLSLSCVACSRFPNFSILYWLGNGSFIEHLPGRLWEGSTSRERGSTGTQLCKALVLEQLTPALHSTNFSCVLVDPEQVVQRHVVLAQLWAGLRATLPPTQEALPSSHSSPQQQG
notes: recombinant IL18BP
- frequency of MAS episodes [3]: remained unchanged
- severity of MAS episodes [3]: reduced the severity of MAS episodes
